# Results as given in patent publication US20230331781A1, “PAR4 DERIVED PEPTIDES, ANALOGS AND USES THEREOF” (Yissum Research Development Company of the Hebrew …, priority 2019, published 2023).
# “Also recorded” adds a separate entry of the source. Numbered stars: 1 amine (or outer) side, 2 acyl side, 3 side chain; on linkers, the order of the positions; unused ones are H or OH. Bridge positions count the residues as written; N and C are the ends. Square brackets hold non-standard residues; d marks the D form. Ends that are not written are not given here. GlyBU(C4) = Gly building unit (N-alpha-functionalized Gly) carrying a C4 alkyl chain (n = m = 4), bridged through a urea group; CO = O=C([*:1])[*:2]
# What was measured:
# RKO/hPar4 tumors = test: Pre-formed RKO/hPar4 tumors in nude mice; assay type: in vivo; details: injection s.c. near tumor started 3 weeks post inoculation (~1 cm tumors), 5 mg/kg
# Experimental: Tumors generated by the RKO/Par4 clone/s (1×10^6 cells, subcutaneously). Injections of the inhibitor Pc(4-4) have started 3 weeks post cell inoculation (5 mg/kg, every other day). FIG. 12B—levels of Par4 in stable clone/s of RKO cells. Error bars show s.d.; *** P<0.001. FIG. 12C—pre-formed tumors. Mice bearing tumors formed (˜1 cm) prior to the Pc(4-4) injection. FIG. 12D tumor volume (cm3). Tumors generated throughout the experimental period versus injections of Pc(4-4) initiated 3 weeks post cell inoculation. Each treatment group contained 7 mice. This is a representative of three times performed experiments. Error bars show s.d.; ** P<0.01.
# In this experimental design, RKO/hPar4 clone/s (1×10^6 cells) were implanted in nude mice (Par4 levels in the clones) (FIG. 12A-12D). Tumors were slowly formed (during 3 weeks). At the time tumors were distinctly observed (˜1 cm length, FIG. 12C), the Pc(4-4) inhibitor was injected s.c. in the vicinity of the tumor site (3×week; 5 mg/kg). At the time the experiment was terminated large RKO/hPar4 tumors were observed. […] Activation of PAR4 leads to the phosphorylation of EGFR. AYPGKF activation of PAR4 leads to pTyr-EGFR. This was shown by co-transfection of HEK293 cells with hPar4 and egfr followed by AYPGKF PAR4 activation. Western blot detection of EGFR Tyr (Y)-phosphorylation (pY-EGFR), was carried-out by anti phospho-Tyr antibodies (FIG. 13A). […]
# pEGFR = test: PAR4 induced pEGFR in MDA-MB-231 cells (Western blot); assay type: cell-based, human; details: endogenous PAR4 and EGFR, AYPGKF 200 μM, FIG. 17
# Experimental: Activation of PAR4 induces phosphorylation of EGFR. This is seen 15 min following AYPGKF the synthetic hexa peptide application for PAR4 activation. MDA-231 cells were serum starved over night following AYPGKF PAR4 activation (200 μM) for 5-60 min. Detection by Western blot analyses of pY-EGFR and EGFR was performed using either anti-phospho tyrosine or anti EGFR antibodies respectively. PAR4 activation induces EGFR tyrosine phosphorylation within 15 min.
# We have performed immunohistochemical (IHC) staining analyses of EGFR in Her2/Neu and TN breast cancer patient tissues. Analyses have indicated the presence of EGFR in both HER2/Neu as also in TN breast cancer tissue biopsy specimen (FIGS. 16A and 16B, respectively). Pc(4-4) Inhibits PAR4 Induced pEGFR in MDA-MB-231 Cells MDA-MB-231 cells were serum starved overnight following AYPGKF PAR4 activation (200 μM) for 5-60 min in the presence and absence of Pc(4-4) (200 μM). Detection by Western blot analyses of pEGFR and EGFR was performed using either anti-phosphotyrosine or anti-EGFR antibodies (1:1000 dilution), respectively. […] AYPGKF activation of PAR4 leads to pTyr-EGFR in MDA-231 cells (see FIG. 17). […] In the presence of Pc(4-4) cyclic peptide (right panel) potently (200 μM) inhibition of the phosphorylation of EGFR is observed (FIG. 17). […]
# Lovo colon cancer cells = test: Matrigel invasion of Lovo colon cancer cells after AYPGKF PAR4 activation; assay type: cell-based; details: PAR4 activated Lovo cells, 50 nM-150 μM, FIGS. 8B and 8C
# Experimental: HEK293 cells were transiently transfected with flg-Par4 followed by AYPGKF PAR4 activation in the presence and absence of PAR4c (4-4) within the range of 50 nM-150 μM. IP of cell lysates following different periods of activation was carried out using anti flg abs. Detection of Akt was performed by anti Akt abs. β-actin serves as a control gene for loading. […] Matrigel invasion before and after AYPGKF PAR4 activation and in the presence and absence of PAR4 c(4-4) inhibitor in the activated PAR4 cells. A range between 50 nM-150 μM PAR4 c(4-4) inhibitor was applied. While ample Matrigel invasion is seen following PAR4 activation, this was attenuated in the presence of the inhibitor in all the concentrations used, similar to control prior to PAR4 activation. FIG. 8C—Histograms represent quantification of the cells/HPF invaded the Matrigel layer. Unpaired Student's t test was used. This experiment is a representative of three independent experiments performed in triplicates. FIG. 8D-8K show Wound-scratch migration assay. Lovo cancer cell-line was grown to confluence. Then, an equal wound scratch was introduced to Lovo cell monolayers. […]
# When we analyzed the impact of Pc(4-4) on the capability of activated PAR4 in Lovo colon cancer cell line to invade Matrigel, a robust invasion is seen (FIG. 8B), inhibited in the presence of Pc(4-4). […]
substance,measurement,setting,value
"Pc(4-4): backbone cyclic analog of Formula I, m=n=4, ring size 30 atoms (S[GlyBU(C4)]EFRDK[GlyBU(C4)]; bridge 2-8 via CO; not fully specified; printed as SZ1EFRDKX3)",size of pre-formed tumors,RKO/hPar4 tumors,distinctly smaller tumors; also recorded: inhibits
same,inhibition of PAR4 induced phosphorylation of EGFR,pEGFR,potently inhibited
same,inhibition of Matrigel invasion,Lovo colon cancer cells,inhibited
same,inhibition of Matrigel invasion,Lovo colon cancer cells; listed as PAR4 c(4-4),inhibits; also recorded: attenuated
